Laboratory results reported in patent US20150239831A1, “INHIBITORS OF CENTRAL NERVOUS SYSTEM VASOACTIVE INHIBITORY PEPTIDE RECEPTOR 2” (The Trustees Of Columbia University In The City Of New York, priority 2012, published 2015).
Entries after “also recorded” stand apart in the source; their conditions may differ. Read-outs that look alike come from different tables or passages of the source.

Target: T1, VIPR2 (Homo sapiens, UniProt P41587)
T1 sequence (P41587 24-438): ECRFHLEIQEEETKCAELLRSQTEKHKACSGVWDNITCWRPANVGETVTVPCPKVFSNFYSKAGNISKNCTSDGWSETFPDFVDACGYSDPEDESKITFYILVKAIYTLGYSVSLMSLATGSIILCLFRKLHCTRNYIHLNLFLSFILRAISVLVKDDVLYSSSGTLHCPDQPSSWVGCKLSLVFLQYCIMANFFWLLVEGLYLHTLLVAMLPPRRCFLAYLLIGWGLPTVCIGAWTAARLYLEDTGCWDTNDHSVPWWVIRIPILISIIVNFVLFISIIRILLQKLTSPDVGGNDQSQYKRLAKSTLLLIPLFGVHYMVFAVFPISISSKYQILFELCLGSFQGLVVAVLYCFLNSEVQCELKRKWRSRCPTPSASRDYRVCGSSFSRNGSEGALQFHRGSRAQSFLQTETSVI
Assay: BRET-based VIPR2 activation assay (CAMYEL cAMP sensor, CHO cells, VIP background)
Format: cell-based
Details: for VIPR2 inhibition in BRET-based assay (in words): FIG. 1C, FIG. 5
From the text: In such a system, a detector cell is used which expresses both the VIPR2 receptor and “CAMYEL,” a YFP-Epac-RLuc8 BRET sensor construct. This construct includes Epac1, a guanine nucleotide exchange factor activated by direct binding of cAMP, fused with an enhanced YFP and Renilla luciferase 8 (Rluc8) allowing BRET upon cAMP-induced conformational changes (Jiang et al., 2007, J Biol Chem. 282:10576-10584). In response to elevated cAMP levels, there is a conformational change in Epac and therefore a change in the proximity of the fused chromophores, Rluc8 and YFP, resulting in measurable energy transfer. Coexpression of this BRET construct with VIPR2, optionally tagged at the N-terminus with a signal peptide and FLAG epitope (SF-VIPR2), for example in HEK293 cells, allows for detection of a VIPR2-specific response to cAMP. BRET readout may be calculated by quantifying the ratio of the light emitted by the acceptor, YFP (λ=525 nm), over the emission from the donor, RLuc8 (λ=485 nm). The proximity of the donor and acceptor, and therefore the BRET ratio, decreases in the presence of cAMP. In non-limiting specific embodiments, a stable cell line may be generated for this assay using the Flp-In T-Rex system in HEK293 cells. This system allows site-specific single copy integration of the gene of interest and control of expression levels using the Tet-repressor site making receptor expression tetracycline-inducible. For example, a CAMYEL and VIPR2 expressing line may be induced with 0.01 μg/ml tetracycline, then, 24 hours later cells may be collected and distributed into 96-well plates. After treatment with candidate inhibitor compound, for example at 5, 1 and 0.5 μM concentrations, cells may be incubated with the light emitting luciferin, coelenterazine H, for 5 min and incubated for 5 min with VIP at increasing concentrations, for example ranging from […] to 10 μM. The fluorescence and luminescence may then be quantified, for example using a PHERAstar (BMG) plate reader. […] Alternatively, analogous experiments may be performed using human cells harvested from a patient having a VIPR2 copy number variation, for example (but not by way of limitation) pluripotent stem cells prepared from such a patient and then transfected with a CAMYEL construct.
Numerous cellular assays were developed that were able to detect VIP responses absent of interference from non-specific vasopressin receptors using this CHO based system. VIPR2 is a Gs coupled receptor. Activation of VIPR2 by VIP leads to both an elevation in cAMP signaling and the recruitment of β-arrestin. A variety of combinations can be transiently transfect into these CHO cells for the assessment of cellular responses to VIP. For the BRET readout CHO cell lines expressing an YFP-Epac-RLuc8 (CAMYEL) BRET sensor were used to detect changes in cAMP. This construct includes Epac1, a guanine nucleotide exchange factor activated by direct binding of cAMP, fused to an enhanced YFP and RLuc8 allowing a change in BRET upon cAMP-induced conformational changes. The key for medium to high throughput screening assays is the use of stable cell lines allowing the continuous assaying of multiple compounds with the ability to generate large numbers of cells for rapid use. In these lines VIPR2 was expressed as one of the stable cell lines assays. This was introduced into the CHO-Flp-IN to allow the generation of isogenic stable cell lines expressing high levels of VIPR2 under control of the CMV promoter. This has been introduced into this line together with the CAMYEL construct previously described. This allows for detection of VIPR2-specific responses to cAMP. EYFP fluorescence and RLuc8 luminescence is quantified in the presence of 5 μM light-emitting luciferin, coelenterazine H, using a PHERAstar (BMG) plate reader. BRET is calculated by quantifying the ratio of the light emitted by the acceptor, YFP (λ=525 nm), over the emission from the donor, RLuc8 (λ=485 nm).
3. […]

[1] = Table 2, read-out: BRET results (IC50)

| IC50 (Table 1, read-out: IC50) [nM] | IC50 [1] [nM] | Compound | VIPR2 inhibition in BRET-based assay (in words) |
| --- | --- | --- | --- |
| 1330 | 1330 | N#Cc1ccc(S(=O)(=O)NC[C@@H](O)C[C@@H](Cc2ccccc2)C(=O)N[C@H]2c3ccccc3C[C@H]2O)cc1 [C] | – |
| – | 3440 | CC(C)c1ccc(S(=O)(=O)NC[C@@H](O)C[C@@H](Cc2ccccc2)C(=O)N[C@H]2c3ccccc3C[C@H]2O)cc1 [Compound A10] | – |
| 1020 | 1020 | COc1ccc(S(=O)(=O)NC[C@@H](O)C[C@@H](Cc2ccccc2)C(=O)N[C@H]2c3ccccc3C[C@H]2O)cc1 [E] | – |
| – | 2340 | O=C(N[C@H]1c2ccccc2C[C@H]1O)[C@H](Cc1ccccc1)C[C@H](O)CNS(=O)(=O)c1ccc(C(F)(F)F)cc1 [F] | greater activity than Compound 1; also recorded: greater effect on V IPR2 inhibition than Compound 1 |
| 1180 | 1980 | Cc1ccc(S(=O)(=O)NC[C@@H](O)C[C@@H](Cc2ccccc2)C(=O)N[C@H]2c3ccccc3C[C@H]2O)cc1 [I] | – |
| 426 | 426 | CC(=O)c1ccc(S(=O)(=O)NC[C@@H](O)C[C@@H](Cc2ccccc2)C(=O)N[C@H]2c3ccccc3C[C@H]2O)cc1 [K] | significantly improved activity as an antagonist at VIPR2 |
